Assay results from patent publication US20230089557A1, “METHODS OF TREATING DLBCL USING BTK INHIBITORS AND COMBINATIONS THEREOF” (BEIGENE SWITZERLAND GMBH, priority 2020, published 2023).

Tested on: R/R non-GCB DLBCL
Test: Compound 1 in combination with anti-CD20 antibody in patients with R/R non-GCB DLBCL
Format: in vivo, human
Conditions: for unadjusted ORR: non-GCB DLBCL
Procedure: A total of 121 patients with R/R non-GCB DLBCL were recruited in four Compound 1 treatment studies that were conducted at a similar time period. Two of the four studies were Compound 1 monotherapy (n=79) and two were Compound 1 combined with an anti-CD20 antibody therapy (n=42). Similar inclusion and exclusion criteria and response evaluation criteria were used across all studies. Fifty-six non-GCB patients were further subtyped by gene expression profiling (GEP) using the HTG EdgeSeq DLBCL Cell of Origin Assay. The expression of approximately 90 lymphoma-associated genes from the HTG GEP assay were analyzed by R package limma for correlation with response to Compound 1 treatment. Seventy-seven patient samples were tested by next-generation sequencing (NGS) with a panel of genes. Chi-square test was used to evaluate the correlation between mutations and the objective response rate (ORR).
Combination therapy schedule 1: Compound 1 was administered orally every day in each cycle at 160 mg BID in 28-day cycles, in combination with obinutuzumab, in patients with R/R non-GCB DLBCL. Obinutuzumab was administered for up to 6 cycles consistent with the U.S. label regimen (100 mg at Day 1 Cycle 1, 1000 mg at Day 8 and Day 15, 900 mg at Day 2 Cycle 1 followed by 1000 mg on day one of cycles 2-6).
Combination therapy schedule 2: Compound 1 was administrated orally every day in each cycle at 160 mg BID in 28-day cycles, in combination with rituximab, in patients with R/R non-GCB DLBCL. Rituximab was administered at 375 mg/m2 intravenously on Cycle 1 Days 1, 8, 15, 22, and on Day 1 of Cycles 4, 6, 8, 10. Compound 1 was administered at least 30 minutes prior to the initiation of the rituximab infusion.
42 patients with non-GCB DLBCL were subjected to Compound 1 plus anti-CD20 antibody Combination therapy schedule 1 or 2.

[1] = combination therapy Total (N = 42), ABC Subtype of DLBCL Patients
[2] = combination therapy Total (N = 42), CD79B ITAM_Mut
[3] = combination therapy Total (N = 42), CD79B ITAM_WT
[4] = combination therapy Total (N = 42), CD79B_Mut
[5] = combination therapy Total (N = 42), CD79B_WT
[6] = combination therapy Total (N = 42), MYD88_L265P
[7] = combination therapy Total (N = 42), MYD88_L265P/CD79B_Mut
[8] = combination therapy Total (N = 42), MYD88_WT
[9] = combination therapy Total (N = 42), NOTCH1_Mut
[10] = combination therapy Total (N = 42), NOTCH1_WT
[11] = combination therapy Total (N = 42), Non-GCB DLBCL Patients
[12] = combination therapy Total (N = 42), Non-GCB DLBCL Patients with Sequence Available
[13] = combination therapy Total (N = 42), Other (not MYD88_L265P/CD79B_Mut)
[14] = combination therapy Total (N = 42), Patients with Sequence Available
[15] = plus obinutuzumab (N = 22), ABC Subtype of DLBCL Patients
[16] = plus obinutuzumab (N = 22), CD79B ITAM_Mut
[17] = plus obinutuzumab (N = 22), CD79B ITAM_WT
[18] = plus obinutuzumab (N = 22), CD79B_Mut
[19] = plus obinutuzumab (N = 22), CD79B_WT
[20] = plus obinutuzumab (N = 22), MYD88_L265P
[21] = plus obinutuzumab (N = 22), MYD88_L265P/CD79B_Mut
[22] = plus obinutuzumab (N = 22), MYD88_WT
[23] = plus obinutuzumab (N = 22), NOTCH1_Mut
[24] = plus obinutuzumab (N = 22), NOTCH1_WT
[25] = plus obinutuzumab (N = 22), Non-GCB DLBCL Patients
[26] = plus obinutuzumab (N = 22), Non-GCB DLBCL Patients with Sequence Available
[27] = plus obinutuzumab (N = 22), Other (not MYD88_L265P/CD79B_Mut)
[28] = plus obinutuzumab (N = 22), Patients with Sequence Available
[29] = plus rituximab (N = 20), ABC Subtype of DLBCL Patients
[30] = plus rituximab (N = 20), CD79B ITAM_Mut
[31] = plus rituximab (N = 20), CD79B ITAM_WT
[32] = plus rituximab (N = 20), CD79B_Mut
[33] = plus rituximab (N = 20), CD79B_WT
[34] = plus rituximab (N = 20), MYD88_L265P
[35] = plus rituximab (N = 20), MYD88_L265P/CD79B_Mut
[36] = plus rituximab (N = 20), MYD88_WT
[37] = plus rituximab (N = 20), NOTCH1_Mut
[38] = plus rituximab (N = 20), NOTCH1_WT
[39] = plus rituximab (N = 20), Non-GCB DLBCL Patients
[40] = plus rituximab (N = 20), Non-GCB DLBCL Patients with Sequence Available
[41] = plus rituximab (N = 20), Other (not MYD88_L265P/CD79B_Mut)
[42] = plus rituximab (N = 20), Patients with Sequence Available

## C=CC(=O)N1CCC([C@@H]2CCNc3c(C(N)=O)c(-c4ccc(Oc5ccccc5)cc4)nn32)CC1 [Compound 1, (S)-7-(1-acryloylpiperidin-4-yl)-2-(4-phenoxyphenyl)-4,5,6,7-tetra-hydropyrazolo[1,5-a]pyrimidine-3-carboxamide]
GEP-confirmed activated B-cell DLBCL, first of the two combo-therapies (obinutuzumab)
  ORR: 50%
GEP-confirmed activated B-cell DLBCL, second of the two combo-therapies (rituximab)
  ORR: 40%
[1]
  ORR: 45.5
  Response/Patients: 5/11
[2]
  ORR: 83.3
  Response/Patients: 5/6
Combination therapy Total (N = 42), CD79B ITAM_Mut vs CD79B ITAM_WT
  Difference in ORR (95% CI): 61.1
[3]
  ORR: 22.2
  Response/Patients: 6/27
[4]
  ORR: 75.0
  Response/Patients: 6/8
Combination therapy Total (N = 42), CD79B_Mut vs CD79B_WT
  Difference in ORR (95% CI): 55.0
[5]
  ORR: 20.0
  Response/Patients: 5/25
[6]
  ORR: 66.7
  Response/Patients: 4/6
Combination therapy Total (N = 42), MYD88_L265P vs MYD88_WT
  Difference in ORR (95% CI): 40.7
[7]
  ORR: 75.0
  Response/Patients: 3/4
Combination therapy Total (N = 42), MYD88_L265P/CD79B_Mut vs Other
  Difference in ORR (95% CI): 47.4
[8]
  ORR: 25.9
  Response/Patients: 7/27
[9]
  ORR: 40.0
  Response/Patients: 2/5
Combination therapy Total (N = 42), NOTCH1_Mut vs NOTCH1_WT
  Difference in ORR (95% CI): 7.9
[10]
  ORR: 32.1
  Response/Patients: 9/28
[11]
  ORR: 28.6
  Response/Patients: 12/42
[12]
  ORR: 33.3
  Response/Patients: 11/33
[13]
  ORR: 27.6
  Response/Patients: 8/29
[14]
  ORR: 35.3
  Response/Patients: 12/34
First of the two combo-therapies (obinutuzumab)
  unadjusted ORR: 22.7%
Second of the two combo-therapies (rituximab)
  unadjusted ORR: 35%
[15]
  ORR: 50.0
  Response/Patients: 3/6
[16]
  ORR: 100.0
  Response/Patients: 3/3
Plus obinutuzumab (N = 22), CD79B ITAM_Mut vs CD79B ITAM_WT, in %
  Difference in ORR (95% CI): 91.7
[17]
  ORR: 8.3
  Response/Patients: 1/12
[18]
  ORR: 100.0
  Response/Patients: 3/3
Plus obinutuzumab (N = 22), CD79B_Mut vs CD79B_WT, in %
  Difference in ORR (95% CI): 91.7
[19]
  ORR: 8.3
  Response/Patients: 1/12
[20]
  ORR: 100.0
  Response/Patients: 3/3
Plus obinutuzumab (N = 22), MYD88_L265P vs MYD88_WT, in %
  Difference in ORR (95% CI): 91.7
[21]
  ORR: 100.0
  Response/Patients: 3/3
Plus obinutuzumab (N = 22), MYD88_L265P/CD79B_Mut vs Other, in %
  Difference in ORR (95% CI): 91.7
[22]
  ORR: 8.3
  Response/Patients: 1/12
[23]
  ORR: 66.7
  Response/Patients: 2/3
Plus obinutuzumab (N = 22), NOTCH1_Mut vs NOTCH1_WT
  Difference in ORR (95% CI): 50.0
[24]
  ORR: 16.7
  Response/Patients: 2/12
[25]
  ORR: 22.7
  Response/Patients: 5/22
[26]
  ORR: 26.7
  Response/Patients: 4/15
[27]
  ORR: 8.3
  Response/Patients: 1/12
[28]
  ORR: 31.3
  Response/Patients: 5/16
[29]
  ORR: 40.0
  Response/Patients: 2/5
[30]
  ORR: 66.7
  Response/Patients: 2/3
Plus rituximab (N = 20), CD79B ITAM_Mut vs CD79B ITAM_WT
  Difference in ORR (95% CI): 33.3
[31]
  ORR: 33.3
  Response/Patients: 5/15
[32]
  ORR: 60.0
  Response/Patients: 3/5
Plus rituximab (N = 20), CD79B_Mut vs CD79B_WT
  Difference in ORR (95% CI): 29.2
[33]
  ORR: 30.8
  Response/Patients: 4/13
[34]
  ORR: 33.3
  Response/Patients: 1/3
Plus rituximab (N = 20), MYD88_L265P vs MYD88_WT
  Difference in ORR (95% CI): −6.7
[35]
  ORR: 0.0
  Response/Patients: 0/1
Plus rituximab (N = 20), MYD88_L265P/CD79B_Mut vs Other
  Difference in ORR (95% CI): −41.2
[36]
  ORR: 40.0
  Response/Patients: 6/15
[37]
  ORR: 0.0
  Response/Patients: 0/2
Plus rituximab (N = 20), NOTCH1_Mut vs NOTCH1_WT
  Difference in ORR (95% CI): −43.8
[38]
  ORR: 43.8
  Response/Patients: 7/16
[39]
  ORR: 35.0
  Response/Patients: 7/20
[40]
  ORR: 38.9
  Response/Patients: 7/18
[41]
  ORR: 41.2
  Response/Patients: 7/17
[42]
  ORR: 38.9
  Response/Patients: 7/18
